Here are results for 1 molecule from publication PMC4710668, “Bioactivation of food genotoxicants 5-hydroxymethylfurfural and furfuryl alcohol by sulfotransferases from human, mouse and rat: a comparative study” (Archives of Toxicology, 2014).

Bounds are passed on as bounds.

One series concerns mSult2a3. Description: HMF sulfoconjugation assay. Type of series: biochemical, mouse. On the procedure:
(§1) Cytosolic fractions containing individual SULT forms were prepared from transgenic S. typhimurium TA1538. Table S1 in the Supplementary Material provides a summary of the thirty SULTs used in the current study together with references describing the cloning of the respective S. typhimurium TA1538 strains. The expressed SULT forms are denoted with the prefixes h, m and r for human, mouse and rat enzymes, respectively. Bacteria were grown in Luria Broth medium containing ampicillin (100 µg/ml) by stirring for 8 h at 200 revolutions/min at 37 °C. The bacterial suspensions were centrifuged at 5,000 g for 10 min. The sediments were washed twice with 25 ml of 10 mM potassium phosphate buffer (pH 7.4)/50 mM potassium chloride (KCP buffer) and centrifuged again. The pellets were taken up in 800 µl KCP buffer and sonicated thrice for 15 s with 30 s pauses in between. The soluble fraction was attained by centrifuging for 1 h at 100,000 g. The supernatants (in the following termed cytosolic preparations) were frozen at −80 °C. The protein concentrations were determined according to a bicinchoninic acid (BCA) assay protocol. The SULT concentrations in the cytosolic preparations were estimated after electrophoretic separation and immunodetection using inclusion bodies of different SULT forms as standards (Teubner et al. [2007]). The preparation of SULT inclusion bodies and the immunodetection of SULTs is described in the Supplementary Material, which also contains a representative immunoblot of different amounts of rSult1a1standard and a cytosolic preparation of S. typhimurium expressing rSult1a1 (Fig. S1).
(§2) The reactions were conducted in mixtures of 100 µl containing 25–200 µg protein, 50 mM potassium phosphate buffer (pH 7.4), 5 mM MgCl2, 50 µM PAPS and different concentrations of HMF at 37 °C. Preliminary experiments ensured that measurements were recorded under ‘linear’ conditions, i.e., doubling of protein concentration or incubation time was doubling the amount of sulfate ester formed. The reactions were stopped after 30 min by adding 300 µl ice-cold 2-propanol, mixed and centrifuged at 15,000 g for 10 min.
(§3) SMF concentrations of the clear supernatants were analyzed by UPLC-MS/MS. The protocol was adapted from the quantification of SMF in plasma samples of HMF-treated mice (Monien et al. [2009]). In short, the supernatants were analyzed using a UPLC system (Waters) connected to a Quattro Premier XE tandem quadrupole mass spectrometer (Waters) using the negative electrospray ionization mode. Samples of 4 µl were injected into a HSS T3 column (1.8 µm, 2.1 × 100 mm; Waters) and eluted with an isocratic flow of 0.35 ml/min 10 mM ammonium acetate/methanol (95:5). The fragmentation reactions of SMF yielding two principal ions, the sulfate ion radical (m/z = 204.9 → 96.0) and the protonated sulfonate ion (m/z = 204.9 → 81.0) were monitored. The tune parameters were as follows: temperature of the electrospray source 120 °C; desolvation temperature 475 °C; desolvation gas nitrogen (800 l/h); cone gas nitrogen (100 l/h); collision gas argon (indicated cell pressure ~5 × 10^−3 mbar). For the fragmentation of SMF, collision energies were 20 and 23 eV for the transitions m/z = 204.9 → 81.0 and m/z = 204.9 → 96.0, respectively. The dwell time was set to 100 ms, and capillary voltage was set to 0.35 kV. The cone and RF1 lens voltages were 32 and 0.2 V, respectively. SMF was quantified using an external calibration line that was linear in the concentration range of 1.0 nM (4 fmol/injection) to 2,500 (10 pmol/injection) SMF (r ^2 ≥ 0.99). Data acquisition and handling were performed with MassLynx 4.1 software (Waters). The limit of detection (LOD) for this technique of 2.5 nM SMF has been reported (Monien et al. [2009]). In the current study, this corresponds to 10 fmol SMF per injection or a reaction rate of 0.5 pmol SMF/mg/min.

The next series concerns mSult5a1. Description: HMF sulfoconjugation assay. The series is classed as biochemical, mouse. On the procedure:
as §1, §2, §3

In another series the test system is rSult2a4. Kind of series: HMF sulfoconjugation assay. Type of series: biochemical, rat. On the procedure:
as §1, §2, §3

On the set-up of series [1]: method as in Monien et al. [2009]. The note with it: 100 mg HMF/kg body weight administered to mice; ref Monien et al. [2009]; cited from earlier work.

As for `O=Cc1ccc(CO)o1` [HMF, 5-Hydroxymethylfurfural], the Rate of sulfoconjugation with mSult2a3 (0.1 mM HMF), in the series with mSult2a3 (1 mM HMF), with mSult2a3 (10 mM HMF), with mSult2a3 (100 mM HMF), in the series on mSult5a1 (0.1 mM HMF) and in the series with mSult5a1 (1 mM HMF) was less than 0.5 pmol/mg/min each time. For the same molecule, the Rate of sulfoconjugation in the series on mSult5a1 (10 mM HMF), with mSult5a1 (100 mM HMF), with rSult2a4 (0.1 mM HMF), with rSult2a4 (1 mM HMF), in the series on rSult2a4 (10 mM HMF) and with rSult2a4 (100 mM HMF) was less than 0.5 pmol/mg/min in each case. For the same molecule, the “fraction of dose converted to SMF” value in series [1] was 500 ppm.
